From paper PMC8434884 (Journal of medicinal chemistry, 2020)
Entries after “also recorded” stand apart in the source; their conditions may differ.

Legend:
male Sprague–Dawley rats = experiment: WAY163909 versus saline two-lever drug discrimination assay; assay type: in vivo, rat; settings: 12 alone 0.5–5 mg/kg ip
α 1B = target: T1, α 1B (Homo sapiens, UniProt P35368); experiment: NIMH PDSP radioligand binding displacement, α 1B; settings: read-out: % inhibition (10 μM)
T1 sequence (P35368 1-520): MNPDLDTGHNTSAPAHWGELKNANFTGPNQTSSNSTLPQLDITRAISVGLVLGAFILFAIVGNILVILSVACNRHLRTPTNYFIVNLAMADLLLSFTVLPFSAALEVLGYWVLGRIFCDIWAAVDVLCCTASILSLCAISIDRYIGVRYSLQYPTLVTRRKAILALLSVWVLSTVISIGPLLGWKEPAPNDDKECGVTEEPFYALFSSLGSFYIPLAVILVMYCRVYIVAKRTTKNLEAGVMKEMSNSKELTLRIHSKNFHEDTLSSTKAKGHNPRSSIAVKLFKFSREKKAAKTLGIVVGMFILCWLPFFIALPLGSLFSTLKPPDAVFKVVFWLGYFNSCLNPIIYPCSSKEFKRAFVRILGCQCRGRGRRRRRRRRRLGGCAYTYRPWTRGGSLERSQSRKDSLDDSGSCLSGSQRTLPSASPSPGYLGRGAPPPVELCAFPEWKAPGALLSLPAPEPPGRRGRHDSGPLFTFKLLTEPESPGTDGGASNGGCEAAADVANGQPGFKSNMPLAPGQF

CYP1A2 = target: T2, CYP1A2 (Homo sapiens, UniProt P05177); experiment: CYP1A2 inhibition; settings: 10 μM
T2 sequence (P05177 1-516): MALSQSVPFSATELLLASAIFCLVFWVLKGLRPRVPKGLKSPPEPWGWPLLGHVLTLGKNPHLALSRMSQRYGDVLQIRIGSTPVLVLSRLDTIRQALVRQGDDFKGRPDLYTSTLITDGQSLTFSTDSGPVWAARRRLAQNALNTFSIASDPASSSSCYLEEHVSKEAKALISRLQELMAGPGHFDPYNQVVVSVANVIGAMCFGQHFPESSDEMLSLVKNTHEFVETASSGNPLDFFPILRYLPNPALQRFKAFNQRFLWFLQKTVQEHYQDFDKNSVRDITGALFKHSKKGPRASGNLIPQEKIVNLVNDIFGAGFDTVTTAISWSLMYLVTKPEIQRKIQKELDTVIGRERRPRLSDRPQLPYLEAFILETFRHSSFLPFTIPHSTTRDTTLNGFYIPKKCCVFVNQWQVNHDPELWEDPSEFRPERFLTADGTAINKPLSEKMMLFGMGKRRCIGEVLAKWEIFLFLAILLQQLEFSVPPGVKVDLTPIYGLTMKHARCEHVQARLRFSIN

CYP2C19 = CYP2C19 (Homo sapiens, UniProt P33261); experiment: CYP2C19 inhibition; settings: 10 μM
CYP2C19, sequence (P33261 whole entry, canonical isoform): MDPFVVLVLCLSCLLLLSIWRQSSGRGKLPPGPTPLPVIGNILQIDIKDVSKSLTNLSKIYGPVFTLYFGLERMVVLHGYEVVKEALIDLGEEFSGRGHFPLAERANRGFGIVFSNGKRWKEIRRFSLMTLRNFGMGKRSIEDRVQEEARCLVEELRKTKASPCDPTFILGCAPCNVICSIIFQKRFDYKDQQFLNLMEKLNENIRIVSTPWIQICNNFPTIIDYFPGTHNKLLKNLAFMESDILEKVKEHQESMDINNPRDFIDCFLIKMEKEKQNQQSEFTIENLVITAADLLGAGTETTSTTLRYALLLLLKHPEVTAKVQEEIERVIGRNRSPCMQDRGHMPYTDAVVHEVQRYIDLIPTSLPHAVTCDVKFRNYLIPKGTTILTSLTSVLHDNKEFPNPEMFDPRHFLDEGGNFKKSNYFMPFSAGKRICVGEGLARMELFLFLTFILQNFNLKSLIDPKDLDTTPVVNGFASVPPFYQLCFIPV

[1] = target: T3, human 5-HT2CR (unedited INI isoform) (Homo sapiens, UniProt P28335); settings: h5-HT2CR-CHO cells
T3 sequence (P28335 33-458): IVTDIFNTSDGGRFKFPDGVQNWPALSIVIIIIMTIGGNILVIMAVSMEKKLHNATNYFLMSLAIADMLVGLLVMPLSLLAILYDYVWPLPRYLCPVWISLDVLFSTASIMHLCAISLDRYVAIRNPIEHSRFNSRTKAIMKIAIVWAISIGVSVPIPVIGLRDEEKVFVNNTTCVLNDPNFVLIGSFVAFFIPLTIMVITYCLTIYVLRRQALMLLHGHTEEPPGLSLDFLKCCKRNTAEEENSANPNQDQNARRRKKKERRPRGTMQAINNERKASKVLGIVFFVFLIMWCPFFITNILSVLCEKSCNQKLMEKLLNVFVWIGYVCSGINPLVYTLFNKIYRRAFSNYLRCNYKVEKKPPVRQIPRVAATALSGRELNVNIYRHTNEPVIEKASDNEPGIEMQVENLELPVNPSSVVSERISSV

[2] = rat liver microsomal clearance; settings: microsomes
human h5-HT2AR = human h5-HT2AR (Homo sapiens, UniProt P28223); experiment: 5-HT-induced Cai2+ release assay in h5-HT2AR-CHO cells; assay type: cell-based
human h5-HT2AR, sequence (P28223 whole entry): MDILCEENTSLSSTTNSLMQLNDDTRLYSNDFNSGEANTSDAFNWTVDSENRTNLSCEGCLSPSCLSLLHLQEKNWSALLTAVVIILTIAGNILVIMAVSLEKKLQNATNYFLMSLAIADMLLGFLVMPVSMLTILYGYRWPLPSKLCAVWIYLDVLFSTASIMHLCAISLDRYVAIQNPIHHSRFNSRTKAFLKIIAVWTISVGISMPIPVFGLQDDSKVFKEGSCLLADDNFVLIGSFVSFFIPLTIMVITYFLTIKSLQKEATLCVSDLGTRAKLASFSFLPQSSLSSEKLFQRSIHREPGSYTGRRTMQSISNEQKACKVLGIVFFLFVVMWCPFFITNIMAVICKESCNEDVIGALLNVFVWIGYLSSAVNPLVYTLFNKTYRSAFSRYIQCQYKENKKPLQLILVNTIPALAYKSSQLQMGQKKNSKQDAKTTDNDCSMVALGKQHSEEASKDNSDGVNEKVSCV

CYP2D6 = CYP2D6 (Homo sapiens, UniProt P10635); experiment: CYP2D6 inhibition; settings: 10 μM
CYP2D6, sequence (P10635 whole entry): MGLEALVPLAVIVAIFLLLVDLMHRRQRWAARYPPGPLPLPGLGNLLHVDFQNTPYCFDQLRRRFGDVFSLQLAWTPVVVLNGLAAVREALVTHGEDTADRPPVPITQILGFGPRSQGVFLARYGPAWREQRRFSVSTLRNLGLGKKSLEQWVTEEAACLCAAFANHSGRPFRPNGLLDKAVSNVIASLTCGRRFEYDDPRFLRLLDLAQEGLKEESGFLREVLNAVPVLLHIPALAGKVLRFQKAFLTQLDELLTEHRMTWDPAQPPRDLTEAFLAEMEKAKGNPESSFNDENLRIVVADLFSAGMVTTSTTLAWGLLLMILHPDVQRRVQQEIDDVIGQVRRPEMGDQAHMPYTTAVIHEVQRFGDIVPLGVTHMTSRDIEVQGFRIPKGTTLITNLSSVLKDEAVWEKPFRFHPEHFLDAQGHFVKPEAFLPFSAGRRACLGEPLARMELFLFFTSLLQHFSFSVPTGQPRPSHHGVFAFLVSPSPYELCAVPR

CYP2C9 = CYP2C9 (Homo sapiens, UniProt P11712); experiment: CYP2C9 inhibition; settings: 10 μM
CYP2C9, sequence (P11712 whole entry): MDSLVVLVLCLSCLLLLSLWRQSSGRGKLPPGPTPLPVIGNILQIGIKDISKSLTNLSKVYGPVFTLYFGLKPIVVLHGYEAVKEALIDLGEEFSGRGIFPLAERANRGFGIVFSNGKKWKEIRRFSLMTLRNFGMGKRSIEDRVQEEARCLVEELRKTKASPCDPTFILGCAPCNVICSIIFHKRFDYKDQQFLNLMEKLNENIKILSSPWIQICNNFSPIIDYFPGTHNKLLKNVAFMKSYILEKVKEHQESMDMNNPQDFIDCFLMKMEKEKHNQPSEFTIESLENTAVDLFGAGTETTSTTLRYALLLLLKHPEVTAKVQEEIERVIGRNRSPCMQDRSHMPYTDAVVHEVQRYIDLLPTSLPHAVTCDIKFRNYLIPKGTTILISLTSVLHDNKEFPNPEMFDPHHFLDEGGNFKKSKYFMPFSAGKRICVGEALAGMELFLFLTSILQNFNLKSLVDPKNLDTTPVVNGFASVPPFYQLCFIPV

kinetic solubility = settings: 2 h
CYP3A4 = CYP3A4 (Homo sapiens, UniProt P08684); experiment: CYP3A4 inhibition; settings: 10 μM
CYP3A4, sequence (P08684 whole entry): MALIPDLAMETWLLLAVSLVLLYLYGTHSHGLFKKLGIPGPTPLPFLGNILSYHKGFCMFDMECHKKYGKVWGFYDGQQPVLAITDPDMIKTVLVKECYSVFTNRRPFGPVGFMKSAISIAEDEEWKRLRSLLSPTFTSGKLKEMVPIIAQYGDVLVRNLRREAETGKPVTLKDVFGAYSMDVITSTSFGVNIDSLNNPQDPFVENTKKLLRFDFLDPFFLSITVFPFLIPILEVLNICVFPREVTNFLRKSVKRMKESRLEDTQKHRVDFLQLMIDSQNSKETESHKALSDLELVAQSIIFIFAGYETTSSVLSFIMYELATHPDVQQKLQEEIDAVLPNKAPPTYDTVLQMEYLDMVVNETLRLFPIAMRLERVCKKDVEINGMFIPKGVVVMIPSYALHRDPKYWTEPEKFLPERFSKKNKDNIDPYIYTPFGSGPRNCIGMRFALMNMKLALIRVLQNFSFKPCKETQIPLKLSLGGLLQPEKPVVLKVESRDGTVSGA

## O=C(NC[C@H](O)CO)[C@@H]1C[C@H](c2ccccc2)CCN1 (mixture of isomers) [Compound 12, (2,4-cis)-N-((S)-2,3-Dihydroxypropyl)-4-phenylpiperidine-2-carboxamide]
Male Sprague–Dawley rats
  response rates (in words): no change in response rates
Male Sprague–Dawley rats; 30 min prior to testing
  substitution for WAY163909 (lever responding, in words): evoked saline lever responding
α 1B
  inhibition at 10 µM: -11%
CYP1A2
  CYP1A2 inhibition: 11.8% (10 μM)
CYP2C19
  CYP2C19 inhibition: 0.0% (10 μM)
[1]; 1 nM, 5-HT-induced Cai2+ release
  5-HT2CR positive allosteric modulator activity (in words): significant PAM activity
[1]; compound added 15 min before 5-HT
  intrinsic agonist activity to induce Cai2+ release prior to addition of 5-HT: did not exhibit intrinsic activity
[2]
  microsomal CLint at 10 μM: < 9.6 µL/min/mg
Human h5-HT2AR
  alteration of Emax or EC50 of 5-HT-induced Cai2+ release (in words): no alteration in the Emax or EC50; also recorded: inactive as an agonist or allosteric modulator
CYP2D6
  CYP2D6 inhibition: 1.9% (10 μM)
CYP2C9
  CYP2C9 inhibition: 0.0% (10 μM)
Kinetic solubility
  kinetic solubility (PBS; pH 7.4): highly soluble
CYP3A4
  CYP3A4 inhibition: 0.0% (10 μM)
